Read-outs that look alike come from different tables or passages of the source.
Tests used:
[1] = system: recombinant Arabidopsis thaliana ALS variant A205F; assay type: biochemical; conditions: IC50 mutant divided by IC50 sensitive ALS; max inhibitor concentration 1.00 × 10^−04 M
Description: (§1) Effects of SNPs identified in sequencing analysis on ALS activity were studied using A. thaliana. The ALS gene from A. thaliana and derivatives thereof were de novo synthesized and subcloned into pET-24d(+) (Life Technologies. Grand Island, NY, USA) using NcoI and XhoI restriction sites. Protein constructs contained an 85 amino acid N-terminal deletion (chloroplast transit peptide) and the addition of an N-terminal Hexa-histidine tag to facilitate purification.
(§2) Lysis was performed by at least two passes through a fluidizer, followed by centrifuging at 80000×g for 30 min at 4 °C. […] Fractions containing ALS protein were pooled and stored at −20 °C.
(§3) Inhibitors, purchased from Sigma as Pestanal standards (Sigma-Aldrich, Deisenhofen, Germany), were dissolved in DMSO and added to the reaction mixture. Inhibitors evaluated included imidazolinone, sulfonylurea, triazolopyrimidines, sulfonylamino-carbonyl- triazolinones, and pyrimidinyl (thio) benzoate herbicides. The reaction mixture was incubated at 30 °C for 60 min and stopped with 70 µl of H2SO4 (3 M). The reaction was then heated to 56 °C for 15 min to convert acetolactate into acetoin. […] For each inhibitor, resistance factors were calculated by dividing IC50 values for mutant and sensitive ALS.

[2] = system: recombinant Arabidopsis thaliana ALS variant W574L; assay type: biochemical; conditions: IC50 mutant divided by IC50 sensitive ALS; max inhibitor concentration 1.00 × 10^−04 M
Description: as §1, §2, §3

[3] = system: recombinant Arabidopsis thaliana ALS variant A205V; assay type: biochemical; conditions: IC50 mutant divided by IC50 sensitive ALS; max inhibitor concentration 1.00 × 10^−04 M
Description: as §1, §2, §3

[4] = molecular target: T1, recombinant Arabidopsis thaliana ALS wild-type enzyme (WT—sensitive) (Arabidopsis thaliana, UniProt P17597); assay: biochemical
T1 construct: Protein constructs contained an 85 amino acid N-terminal deletion (chloroplast transit peptide); Hexa-histidine tag (N); made in house
Description: as §1, §2, §3

[5] = system: annual bluegrass (Poa annua L.); assay: Whole plant confirmation of target-site resistance (visual control and dry biomass 28 days after treatment); assay type: in vivo
Description: Progeny of all POAAN-R3 plants subjected to genetic sequencing (RP1–RP8) were surface seeded into separate 10.2 × 10.2 cm greenhouse pots (Dillen Products/Myers Industries, Inc. Middlefield, OH, USA.) filled with a peat moss growing medium (ProMix BX Mycorrhizae. Premier Tech Horticulture, Quakertown, PA, USA) on 5 January 2015. The susceptible annual bluegrass population (S) included in our sequencing analysis was also seeded in the same fashion.
After seeding, pots were placed inside a growth chamber (Conviron A1000. Controlled Environments Inc, Hendersonville, NC) configured to provide 14 h day at 19 °C and a 10 h night at 10 °C. Light intensity inside the chamber averaged 296 μmol m^−2 s^−1. Irrigation was applied to each pot daily using distilled water and a misting nozzle. Annual bluegrass emergence was first noted on 16 January 2015. Plants remained inside the growth chamber until 26 January 2015. On this date, seedlings of each plant (RP1–RP8, S) were transplanted into individual 164 cm^3 plastic conical containers (SC10 Super Cell Cone-tainer. Stuewe and Sons. Tangent, OR 97389) filled with Sequatchie silt loam (fine-loamy, siliceous, semiactive, thermic humic Hapludult) measuring 6.2 in soil pH and 2.1 % in organic matter content. Transplants were replicated such that 32 plastic conical containers were created for each annual bluegrass plant analyzed in previous experiments (RP1–RP8, S). Immediately after transplanting, plastic conical containers were placed in a glasshouse located at the University of Tennessee (Knoxville, TN, USA; 35.56, 83.56). Peak light intensity in this glasshouse averaged 714 μmol m^−2 s^−1 with day/night temperatures averaging 27/17 °C. Irrigation was applied daily using an overhead misting system and plants were not clipped prior to initiating this study.
Plants were allowed to acclimate to this glasshouse environment for 10 days prior to being treated with foramsulfuron (Revolver. Bayer Environmental Sciences. Research Triangle Park, NC, USA) at 29 g ha^−1, imazamox (Clearcast. BASF Corporation. Research Triangle Park, NC) at 140 g ha^−1, or simazine (Princep 4L. Syngenta Professional Products. Greensboro, NC) at 1120 g ha^−1. Per label recommendations, imazamox and simazine treatments included a non-ionic surfactant (Activator-90. Loveland Products Inc. Greeley, CO, USA) at 0.25 % v/v. All treatments were applied in an enclosed spray chamber (Generation III track sprayer. DeVries Manufacturing, Hollandale, MN, USA) using a water carrier at 215 L ha^−1 through an 8004 EVS nozzle (TeeJet, Technologies, Spraying Systems Co., Glendale Heights, IL, USA). These herbicide treatments were selected to confirm results of genetic sequencing that RP1–RP8 were resistant to sulfonylurea, imidazolinone, and photosystem II inhibiting herbicides. A non-treated control treatment was included with each resistant (RP1–RP8) and susceptible (S) plant for comparison. Herbicides were applied on 5 February 2015 when plants were at a two-to-three leaf stage, prior to annual bluegrass tiller formation.
Annual bluegrass control was visually assessed on a 0 (i.e., no control) to 100 % (i.e., complete kill) scale relative to the non-treated 28 days after treatment. After all control data had been collected, aboveground biomass was harvested from each plastic conical container at the soil line using scissors, dried at 100 °C for 3 days, and weighed.
Treatments were arranged as a 9 × 4 factorial with nine plant selections (i.e., RP1–RP8, S) and four herbicide treatments (i.e., foramsulfuron, imazamox, simazine, non-treated) in a completely randomized design with four replications and repeated in time and space during February 2015. Plants were the same age during both experimental runs.

[6] = concentration for 50 % inhibition of WT enzyme, max inhibitor concentration 1.00 × 10^−04 M, read-out: WT sensitivity [IC50]

T1 sequence (P17597 86-670): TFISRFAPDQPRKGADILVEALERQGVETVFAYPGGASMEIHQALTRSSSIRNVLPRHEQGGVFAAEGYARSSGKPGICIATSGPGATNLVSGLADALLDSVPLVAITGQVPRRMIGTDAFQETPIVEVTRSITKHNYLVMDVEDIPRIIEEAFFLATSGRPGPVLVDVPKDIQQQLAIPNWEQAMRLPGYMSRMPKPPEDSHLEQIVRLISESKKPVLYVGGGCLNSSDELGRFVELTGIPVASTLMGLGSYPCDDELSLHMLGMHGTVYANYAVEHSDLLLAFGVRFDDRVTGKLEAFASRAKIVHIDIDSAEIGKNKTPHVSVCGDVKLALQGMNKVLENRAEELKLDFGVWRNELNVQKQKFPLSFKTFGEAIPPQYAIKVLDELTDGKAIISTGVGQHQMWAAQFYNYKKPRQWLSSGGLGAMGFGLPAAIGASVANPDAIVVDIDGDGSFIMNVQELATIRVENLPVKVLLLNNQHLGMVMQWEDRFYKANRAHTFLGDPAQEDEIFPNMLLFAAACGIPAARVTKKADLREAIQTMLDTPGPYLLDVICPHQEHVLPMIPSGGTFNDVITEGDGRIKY

Row | Structure (SMILES) | Resistance factor A205F [1] | Resistance factor W574L [2] | Resistance factor A205V [3] | IC50 [4] [nM] | IC50 [4, 6] [nM] | other results
1 | COc1cc(OC)nc(NC(=O)NS(=O)(=O)c2ncccc2C(=O)N(C)C)n1 [Nicosulfuron] | 1401 | 35 | 30 | 71.4 | – | –
2 | COc1nc(NC(=O)NS(=O)(=O)c2ccccc2C(F)(F)F)nc(C(F)(F)F)n1 [Tritosulfuron] | 5356 | 167 | 37 | – | 18.7 | –
3 | COc1cc(OC)nc(Oc2cccc(Oc3nc(OC)cc(OC)n3)c2C(=O)O)n1 [Bispyribac] | 7 | 7944 | 11 | – | 1.58 | –
4 | COc1cc(OC)nc(NC(=O)NS(=O)(=O)c2cc(CNS(C)(=O)=O)ccc2C(=O)O)n1 [Mesosulfuron] | 293 | 104 | 16 | – | 1.33 | –
5 | COc1cc(OC)nc(Sc2cccc(Cl)c2C(=O)O)n1 [Pyrithiobac] | 306 | 134,838 | 433 | 0.742 | – | –
6 | COc1nn(C(=O)NS(=O)(=O)c2c(C(=O)O)csc2C)c(=O)n1C [Thiencarbazone] | 62 | 16 | 8 | – | 24.8 | –
7 | COc1cc(OC)n2nc(S(=O)(=O)Nc3c(Cl)ccc(C)c3Cl)nc2n1 [Metosulam] | 1656 | 107 | 34 | 0.441 | – | –
8 | CCCOc1nn(C(=O)[N-]S(=O)(=O)c2ccccc2C(=O)OC)c(=O)n1C.[Na+] [Propoxycarbazone] | 1185 | 309 | 20 | – | – | –
9 | COc1ncc(F)c2nc(S(=O)(=O)Nc3c(F)cccc3F)nn12 [Florasulam] | 1 | 370 | 89 | – | 3.43 | –
10 | COCc1cnc(C2=NC(C)(C(C)C)C(=O)N2)c(C(=O)O)c1 (centres unmarked) [Imazamox] | – | 34 | 34 | 2930 | – | annual bluegrass control, resistant plants with the exception of RP6 ([5]; 28 days after treatment, summary over RP1–RP5, RP7, RP8): ≤ 11%; Annual bluegrass biomass RP1 ([5]; RP1, aboveground dry biomass 28 days after treatment, foramsulfuron 29, imazamox 140, simazine 1120 g ha^-1): 84 % of nontreated control; Annual bluegrass control RP1 ([5]; RP1 plants, 28 days after treatment, 2 to 3 leaf stage, foramsulfuron 29, imazamox 140, simazine 1120 g ha^−1): 2%; Annual bluegrass biomass RP2 ([5]; RP2, aboveground dry biomass 28 days after treatment, foramsulfuron 29, imazamox 140, simazine 1120 g ha^-1): 66 % of nontreated control; Annual bluegrass control RP2 ([5]; RP2 plants, 28 days after treatment, 2 to 3 leaf stage, foramsulfuron 29, imazamox 140, simazine 1120 g ha^−1): 0%; Annual bluegrass biomass RP3 ([5]; RP3, aboveground dry biomass 28 days after treatment, foramsulfuron 29, imazamox 140, simazine 1120 g ha^-1): 94 % of nontreated control; Annual bluegrass control RP3 ([5]; RP3 plants, 28 days after treatment, 2 to 3 leaf stage, foramsulfuron 29, imazamox 140, simazine 1120 g ha^−1): 0%; Annual bluegrass biomass RP4 ([5]; RP4, aboveground dry biomass 28 days after treatment, foramsulfuron 29, imazamox 140, simazine 1120 g ha^-1): 55 % of nontreated control; Annual bluegrass control RP4 ([5]; RP4 plants, 28 days after treatment, 2 to 3 leaf stage, foramsulfuron 29, imazamox 140, simazine 1120 g ha^−1): 0%; Annual bluegrass biomass RP5 ([5]; RP5, aboveground dry biomass 28 days after treatment, foramsulfuron 29, imazamox 140, simazine 1120 g ha^-1): 49 % of nontreated control; Annual bluegrass control RP5 ([5]; RP5 plants, 28 days after treatment, 2 to 3 leaf stage, foramsulfuron 29, imazamox 140, simazine 1120 g ha^−1): 3%; Annual bluegrass biomass RP6 ([5]; RP6, aboveground dry biomass 28 days after treatment, foramsulfuron 29, imazamox 140, simazine 1120 g ha^-1): 70 % of nontreated control; Annual bluegrass control RP6 ([5]; RP6 plants, 28 days after treatment, 2 to 3 leaf stage, foramsulfuron 29, imazamox 140, simazine 1120 g ha^−1): 16%; Annual bluegrass biomass RP7 ([5]; RP7, aboveground dry biomass 28 days after treatment, foramsulfuron 29, imazamox 140, simazine 1120 g ha^-1): 87 % of nontreated control; Annual bluegrass control RP7 ([5]; RP7 plants, 28 days after treatment, 2 to 3 leaf stage, foramsulfuron 29, imazamox 140, simazine 1120 g ha^−1): 4%; Annual bluegrass biomass RP8 ([5]; RP8, aboveground dry biomass 28 days after treatment, foramsulfuron 29, imazamox 140, simazine 1120 g ha^-1): 86 % of nontreated control; Annual bluegrass control RP8 ([5]; RP8 plants, 28 days after treatment, 2 to 3 leaf stage, foramsulfuron 29, imazamox 140, simazine 1120 g ha^−1): 0%; Annual bluegrass control S ([5]; susceptible (S) plants, 28 days after treatment, 2 to 3 leaf stage, foramsulfuron 29, imazamox 140, simazine 1120 g ha^−1): 93%; Annual bluegrass biomass S ([5]; susceptible (S), aboveground dry biomass 28 days after treatment, foramsulfuron 29, imazamox 140, simazine 1120 g ha^-1): 3 % of nontreated control
11 | COc1cc(OC)nc(Sc2cccc3c2C(=O)OC3C)n1 (centres unmarked) [Pyriftalid] | 5 | 5 | 5 | – | 20000 | –
12 | COc1nn(C(=O)NS(=O)(=O)c2ccccc2OC(F)(F)F)c(=O)n1C [Flucarbazone] | 441 | 7 | 2 | – | 24.5 | –
